Measured values from patent US20250171495A1, “MUTLI-TARGETED SERINE PROTEASE INHIBITORS FOR TREATMENT OF CANCER AND VIRAL INFECTION” (Washington University, priority 2023, published 2025).
“And” between values parts separate entries of the source, which are not always exact repeats. Equal values may be shown once.

Columns and labels:
Assay type in all cases: biochemical
[1] = biological target: T1, matriptase (Homo sapiens, UniProt Q9Y5Y6); experiment: HyCoSuL P4-P2 substrate specificity screening, matriptase; conditions: for P2 Position Substrate Activity for matriptase (percent substrate cleavage/proteolysis): residue fixed at P2 position; for P2 Position Substrate Activity for matriptase (percent substrate cleavage/proteolysis) / P3 Position Substrate Activity for matriptase (percent substrate cleavage/proteolysis) / P4 Position Substrate Activity for matriptase (percent substrate cleavage/proteolysis): P1-Arg HyCoSuL, 100 μM, best recognized amino acid set to 100%; for P3 Position Various Amino Acids Substrate Activity, matriptase (percent substrate cleavage/proteolysis): residue fixed at P3 position of substrate library; for P4 Position Various Amino Acids Substrate Activity, matriptase (percent substrate proteolysis/cleavage): residue fixed at P4 position of substrate library; for P3 Position Substrate Activity for matriptase (percent substrate cleavage/proteolysis): residue fixed at P3 position; for P4 Position Substrate Activity for matriptase (percent substrate cleavage/proteolysis): residue fixed at P4 position
T1 sequence (Q9Y5Y6 1-855): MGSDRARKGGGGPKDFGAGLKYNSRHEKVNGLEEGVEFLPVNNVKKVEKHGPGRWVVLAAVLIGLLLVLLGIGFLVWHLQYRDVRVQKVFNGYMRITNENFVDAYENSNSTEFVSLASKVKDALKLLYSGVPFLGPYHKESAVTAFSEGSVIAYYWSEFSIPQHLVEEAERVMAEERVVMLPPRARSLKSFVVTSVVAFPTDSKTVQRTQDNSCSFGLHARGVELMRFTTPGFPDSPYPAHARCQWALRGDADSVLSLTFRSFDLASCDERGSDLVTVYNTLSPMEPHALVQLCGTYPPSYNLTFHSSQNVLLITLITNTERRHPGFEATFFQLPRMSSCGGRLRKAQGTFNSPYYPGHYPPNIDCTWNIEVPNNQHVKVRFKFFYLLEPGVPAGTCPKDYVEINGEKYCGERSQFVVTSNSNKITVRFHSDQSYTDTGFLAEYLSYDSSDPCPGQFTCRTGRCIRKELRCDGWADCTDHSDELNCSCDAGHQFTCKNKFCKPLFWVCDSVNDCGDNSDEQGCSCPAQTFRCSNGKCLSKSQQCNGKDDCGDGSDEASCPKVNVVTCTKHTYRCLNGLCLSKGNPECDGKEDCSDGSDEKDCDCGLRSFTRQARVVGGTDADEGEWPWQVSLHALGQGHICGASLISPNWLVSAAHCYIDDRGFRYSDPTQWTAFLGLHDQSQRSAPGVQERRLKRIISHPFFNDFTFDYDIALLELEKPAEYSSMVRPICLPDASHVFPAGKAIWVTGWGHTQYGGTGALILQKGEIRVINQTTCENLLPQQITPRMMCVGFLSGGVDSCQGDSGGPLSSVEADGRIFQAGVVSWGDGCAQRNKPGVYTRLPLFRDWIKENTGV

[2] = biological target: TMPRSS2 (Homo sapiens, UniProt O15393); experiment: PS-SCL / HyCoSuL substrate specificity screening, TMPRSS2; conditions: for P2 Position Substrate Activity for TMPRSS2 (percent substrate cleavage/proteolysis): residue fixed at P2 position of substrate library; for P2 Position Substrate Activity for TMPRSS2 (percent substrate cleavage/proteolysis) / P3 Position Substrate Activity for TMPRSS2 (percent substrate cleavage/proteolysis) / P4 Position Substrate Activity for TMPRSS2 (percent substrate cleavage/proteolysis): best recognized amino acid set to 100%; for P3 Position Various Amino Acids Substrate Activity, TMPRSS2 (percent substrate cleavage/proteolysis) / P3 Position Substrate Activity for TMPRSS2 (percent substrate cleavage/proteolysis): residue fixed at P3 position of substrate library; for P4 Position Various Amino Acids Substrate Activity, TMPRSS2 (percent substrate proteolysis/cleavage) / P4 Position Substrate Activity for TMPRSS2 (percent substrate cleavage/proteolysis): residue fixed at P4 position of substrate library
TMPRSS2, sequence (O15393 whole entry): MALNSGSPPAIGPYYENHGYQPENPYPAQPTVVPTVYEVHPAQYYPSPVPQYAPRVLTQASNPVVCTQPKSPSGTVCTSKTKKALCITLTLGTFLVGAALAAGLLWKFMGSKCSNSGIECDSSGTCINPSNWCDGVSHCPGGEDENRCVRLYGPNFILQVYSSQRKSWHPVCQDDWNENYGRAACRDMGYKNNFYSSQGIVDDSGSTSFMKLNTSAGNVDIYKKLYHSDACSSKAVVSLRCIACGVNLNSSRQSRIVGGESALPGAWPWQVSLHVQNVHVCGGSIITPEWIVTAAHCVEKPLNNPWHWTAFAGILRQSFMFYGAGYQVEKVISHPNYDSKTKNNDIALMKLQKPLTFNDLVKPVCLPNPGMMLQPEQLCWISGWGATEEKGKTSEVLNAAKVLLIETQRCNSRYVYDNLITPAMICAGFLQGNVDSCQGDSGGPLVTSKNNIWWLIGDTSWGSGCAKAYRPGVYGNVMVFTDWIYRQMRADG

[3] = biological target: T2, HGFA (Homo sapiens, UniProt Q04756); experiment: HyCoSuL P4-P2 substrate specificity screening, HGFA; conditions: for P2 Position Substrate Activity for HGFA (percent substrate cleavage/proteolysis): residue fixed at P2 position; for P2 Position Substrate Activity for HGFA (percent substrate cleavage/proteolysis) / P3 Position Substrate Activity for HGFA (percent substrate cleavage/proteolysis) / P4 Position Substrate Activity for HGFA (percent substrate cleavage/proteolysis): P1-Arg HyCoSuL, 100 μM, best recognized amino acid set to 100%; for P3 Position Various Amino Acids Substrate Activity, HGFA (percent substrate cleavage/proteolysis): residue fixed at P3 position of substrate library; for P4 Position Various Amino Acids Substrate Activity, HGFA (percent substrate proteolysis/cleavage): residue fixed at P4 position of substrate library; for P3 Position Substrate Activity for HGFA (percent substrate cleavage/proteolysis): residue fixed at P3 position; for P4 Position Substrate Activity for HGFA (percent substrate cleavage/proteolysis): residue fixed at P4 position
T2 sequence (Q04756 373-655): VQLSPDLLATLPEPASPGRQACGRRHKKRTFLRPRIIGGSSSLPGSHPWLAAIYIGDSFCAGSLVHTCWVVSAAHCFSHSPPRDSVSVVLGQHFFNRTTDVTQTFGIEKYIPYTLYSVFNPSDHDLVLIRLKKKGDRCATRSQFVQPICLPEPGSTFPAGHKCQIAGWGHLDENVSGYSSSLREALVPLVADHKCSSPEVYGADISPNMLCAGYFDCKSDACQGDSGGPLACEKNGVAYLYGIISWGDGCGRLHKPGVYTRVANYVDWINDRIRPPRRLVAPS

[4] = biological target: T3, hepsin (Homo sapiens, UniProt P05981); experiment: HyCoSuL P4-P2 substrate specificity screening, hepsin; conditions: for P2 Position Substrate Activity for hepsin (percent substrate cleavage/proteolysis): residue fixed at P2 position; for P2 Position Substrate Activity for hepsin (percent substrate cleavage/proteolysis) / P3 Position Substrate Activity for hepsin (percent substrate cleavage/proteolysis) / P4 Position Substrate Activity for hepsin (percent substrate cleavage/proteolysis): P1-Arg HyCoSuL, 100 μM, best recognized amino acid set to 100%; for P3 Position Various Amino Acids Substrate Activity, hepsin (percent substrate cleavage/proteolysis): residue fixed at P3 position of substrate library; for P4 Position Various Amino Acids Substrate Activity, hepsin (percent substrate proteolysis/cleavage): residue fixed at P4 position of substrate library; for P3 Position Substrate Activity for hepsin (percent substrate cleavage/proteolysis): residue fixed at P3 position; for P4 Position Substrate Activity for hepsin (percent substrate cleavage/proteolysis): residue fixed at P4 position
T3 construct: purchased R&D Systems 4776-SE-010
T3 sequence (P05981 163-417 limits assumed): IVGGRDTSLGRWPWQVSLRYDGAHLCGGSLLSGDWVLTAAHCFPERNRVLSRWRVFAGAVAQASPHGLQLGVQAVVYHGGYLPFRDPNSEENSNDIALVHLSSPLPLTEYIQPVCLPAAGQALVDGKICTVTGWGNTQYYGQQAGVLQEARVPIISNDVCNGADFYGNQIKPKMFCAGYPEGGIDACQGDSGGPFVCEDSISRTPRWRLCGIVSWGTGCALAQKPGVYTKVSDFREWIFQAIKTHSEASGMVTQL
T3 sequence (P05981 1-162 partner limits assumed): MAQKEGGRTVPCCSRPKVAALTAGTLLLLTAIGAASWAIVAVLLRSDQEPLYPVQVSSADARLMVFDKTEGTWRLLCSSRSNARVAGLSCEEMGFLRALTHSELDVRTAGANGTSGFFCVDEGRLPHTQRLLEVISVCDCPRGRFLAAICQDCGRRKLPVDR

Molecule	P2 Position Substrate Activity for matriptase (percent substrate cleavage/proteolysis) [1] [%]	P3 Position Various Amino Acids Substrate Activity, matriptase (percent substrate cleavage/proteolysis) [1] [%]	P4 Position Various Amino Acids Substrate Activity, matriptase (percent substrate proteolysis/cleavage) [1] [%]	P2 Position Substrate Activity for TMPRSS2 (percent substrate cleavage/proteolysis) [2] [%]	P3 Position Various Amino Acids Substrate Activity, TMPRSS2 (percent substrate cleavage/proteolysis) [2] [%]	P4 Position Various Amino Acids Substrate Activity, TMPRSS2 (percent substrate proteolysis/cleavage) [2] [%]	P2 Position Substrate Activity for HGFA (percent substrate cleavage/proteolysis) [3] [%]	P3 Position Various Amino Acids Substrate Activity, HGFA (percent substrate cleavage/proteolysis) [3] [%]	P4 Position Various Amino Acids Substrate Activity, HGFA (percent substrate proteolysis/cleavage) [3] [%]	P2 Position Substrate Activity for hepsin (percent substrate cleavage/proteolysis) [4] [%]	P3 Position Various Amino Acids Substrate Activity, hepsin (percent substrate cleavage/proteolysis) [4] [%]	P4 Position Various Amino Acids Substrate Activity, hepsin (percent substrate proteolysis/cleavage) [4] [%]	P3 Position Substrate Activity for matriptase (percent substrate cleavage/proteolysis) [1] [%]	P4 Position Substrate Activity for matriptase (percent substrate cleavage/proteolysis) [1]	P3 Position Substrate Activity for TMPRSS2 (percent substrate cleavage/proteolysis) [2] [%]	P4 Position Substrate Activity for TMPRSS2 (percent substrate cleavage/proteolysis) [2] [%]	P3 Position Substrate Activity for HGFA (percent substrate cleavage/proteolysis) [3] [%]	P4 Position Substrate Activity for HGFA (percent substrate cleavage/proteolysis) [3] [%]	P3 Position Substrate Activity for hepsin (percent substrate cleavage/proteolysis) [4] [%]	P4 Position Substrate Activity for hepsin (percent substrate cleavage/proteolysis) [4] [%]
D-Ser	0	2	10	0.00	0.00	31.72	0.00	10.86	7.94	11.55	54.84	21.84	–	–	–	–	–	–	–	–
D-Val	0	1	7	0.00	0.00	17.70	0.00	5.76	8.25	0.00	27.04	22.58	–	–	–	–	–	–	–	–
L-hArg	16	44	86	13.07	–	–	5.83	–	–	57.96	–	–	44.42	76.43% and 86.17%	18.34	44.91	100.00	22.07	47.00	56.24
D-Glu	0	2	1	0.00	12.50	23.68	0.00	3.61	2.62	0.00	34.55	2.98	–	–	–	–	–	–	–	–
N[C@@H](CCCCOCc1ccccc1)C(=O)O [L-Nle(O-Bzl)]	0	75	49	52.14	–	–	0.00	–	–	0.00	–	–	75.40	48.54%	71.88	63.90	30.67	16.90	82.17	91.83
L-Tyr	12	17	14	31.93	16.18	31.87	3.17	11.59	16.47	22.79	7.75	22.39	–	–	–	–	–	–	–	–
D-Phe	0	5	6	0.00	3.80	24.14	0.00	15.22	8.13	0.00	24.92	13.15	–	–	–	–	–	–	–	–
